In ChEMBL document CHEMBL3797052 (Eur J Med Chem, 2016):

Tests used:
Type in all cases: functional
[1] = Cytotoxicity against human HCT116 cells assessed as growth inhibition at 100 uM after 2 days by MTT assay; conditions: HCT-116, 48 h, read-out: GI
[2] = Cytotoxicity against human HCT116 cells assessed as growth inhibition at 10 uM after 2 days by MTT assay; conditions: HCT-116, 48 h, read-out: GI
[3] = Cytotoxicity against human SKBR3 cells assessed as growth inhibition at 100 uM after 2 days by MTT assay; conditions: SK-BR-3, 48 h, read-out: GI
[4] = Cytotoxicity against human SKBR3 cells assessed as growth inhibition at 10 uM after 2 days by MTT assay; conditions: SK-BR-3, 48 h, read-out: GI
[5] = Antiproliferative activity against human HL-60(TB) cells assessed as cell growth at 10^-5 M after 48 hrs by sulforhodamine B assay; conditions: HL-60, 48 h, read-out: Activity
K562 = assay: Antiproliferative activity against human K562 cells assessed as cell growth at 10^-5 M after 48 hrs by sulforhodamine B assay; conditions: K562, 48 h, read-out: Activity
SR = assay: Antiproliferative activity against human SR cells assessed as cell growth at 10^-5 M after 48 hrs by sulforhodamine B assay; conditions: read-out: Activity
A549 = assay: Antiproliferative activity against human A549/ATCC cells assessed as cell growth at 10^-5 M after 48 hrs by sulforhodamine B assay; conditions: A549, 48 h, read-out: Activity
EKVX = assay: Antiproliferative activity against human EKVX cells assessed as cell growth at 10^-5 M after 48 hrs by sulforhodamine B assay; conditions: read-out: Activity
NCI-H226 = assay: Antiproliferative activity against human NCI-H226 cells assessed as cell growth at 10^-5 M after 48 hrs by sulforhodamine B assay; conditions: NCI-H226, 48 h, read-out: Activity
NCI-H460 = assay: Antiproliferative activity against human NCI-H460 cells assessed as cell growth at 10^-5 M after 48 hrs by sulforhodamine B assay; conditions: NCI-H460, 48 h, read-out: Activity
NCI-H522 = assay: Antiproliferative activity against human NCI-H522 cells assessed as cell growth at 10^-5 M after 48 hrs by sulforhodamine B assay; conditions: NCI-H522, 48 h, read-out: Activity
[6] = Antiproliferative activity against human COLO205 cells assessed as cell growth at 10^-5 M after 48 hrs by sulforhodamine B assay; conditions: COLO 205, 48 h, read-out: Activity
[7] = Antiproliferative activity against human HCC2998 cells assessed as cell growth at 10^-5 M after 48 hrs by sulforhodamine B assay; conditions: HCC 2998, 48 h, read-out: Activity
[8] = Antiproliferative activity against human HCT116 cells assessed as cell growth at 10^-5 M after 48 hrs by sulforhodamine B assay; conditions: HCT-116, 48 h, read-out: Activity
HT-29 = assay: Antiproliferative activity against human HT-29 cells assessed as cell growth at 10^-5 M after 48 hrs by sulforhodamine B assay; conditions: HT-29, 48 h, read-out: Activity
[9] = Antiproliferative activity against human SW620 cells assessed as cell growth at 10^-5 M after 48 hrs by sulforhodamine B assay; conditions: SW-620, 48 h, read-out: Activity
[10] = Antiproliferative activity against human SF268 cells assessed as cell growth at 10^-5 M after 48 hrs by sulforhodamine B assay; conditions: SF-268, 48 h, read-out: Activity
[11] = Antiproliferative activity against human SF295 cells assessed as cell growth at 10^-5 M after 48 hrs by sulforhodamine B assay; conditions: SF-295, 48 h, read-out: Activity
[12] = Antiproliferative activity against human SNB75 cells assessed as cell growth at 10^-5 M after 48 hrs by sulforhodamine B assay; conditions: SNB-75, 48 h, read-out: Activity
U-251 = assay: Antiproliferative activity against human U251 cells assessed as cell growth at 10^-5 M after 48 hrs by sulforhodamine B assay; conditions: U-251, 48 h, read-out: Activity
[13] = Antiproliferative activity against human LOXIMVI cells assessed as cell growth at 10^-5 M after 48 hrs by sulforhodamine B assay; conditions: LOX IMVI, read-out: Activity
Malme-3M = assay: Antiproliferative activity against human MALME-3M cells assessed as cell growth at 10^-5 M after 48 hrs by sulforhodamine B assay; conditions: read-out: Activity
[14] = Antiproliferative activity against human IGROV1 cells assessed as cell growth at 10^-5 M after 48 hrs by sulforhodamine B assay; conditions: IGROV-1, 48 h, read-out: Activity
[15] = Antiproliferative activity against human OVCAR3 cells assessed as cell growth at 10^-5 M after 48 hrs by sulforhodamine B assay; conditions: OVCAR-3, 48 h, read-out: Activity
[16] = Antiproliferative activity against human OVCAR5 cells assessed as cell growth at 10^-5 M after 48 hrs by sulforhodamine B assay; conditions: OVCAR-5, 48 h, read-out: Activity
[17] = Antiproliferative activity against human OVCAR8 cells assessed as cell growth at 10^-5 M after 48 hrs by sulforhodamine B assay; conditions: OVCAR-8, 48 h, read-out: Activity
[18] = Antiproliferative activity against human SKOV3 cells assessed as cell growth at 10^-5 M after 48 hrs by sulforhodamine B assay; conditions: SK-OV-3, 48 h, read-out: Activity
786-0 = assay: Antiproliferative activity against human 786-0 cells assessed as cell growth at 10^-5 M after 48 hrs by sulforhodamine B assay; conditions: 786-0, 48 h, read-out: Activity
[19] = Antiproliferative activity against human RXF393 cells assessed as cell growth at 10^-5 M after 48 hrs by sulforhodamine B assay; conditions: RXF 393, 48 h, read-out: Activity
SN12C = assay: Antiproliferative activity against human SN12C cells assessed as cell growth at 10^-5 M after 48 hrs by sulforhodamine B assay; conditions: read-out: Activity
[20] = Antiproliferative activity against human TK10 cells assessed as cell growth at 10^-5 M after 48 hrs by sulforhodamine B assay; conditions: TK-10, 48 h, read-out: Activity
[21] = Antiproliferative activity against human UO31 cells assessed as cell growth at 10^-5 M after 48 hrs by sulforhodamine B assay; conditions: UO-31, 48 h, read-out: Activity
MCF7 = assay: Antiproliferative activity against human MCF7 cells assessed as cell growth at 10^-5 M after 48 hrs by sulforhodamine B assay; conditions: MCF7, 48 h, read-out: Activity
[22] = Antiproliferative activity against human BT549 cells assessed as cell growth at 10^-5 M after 48 hrs by sulforhodamine B assay; conditions: BT-549, 48 h, read-out: Activity
MDA-MB-468 = assay: Antiproliferative activity against human MDA-MB-468 cells assessed as cell growth at 10^-5 M after 48 hrs by sulforhodamine B assay; conditions: MDA-MB-468, 48 h, read-out: Activity
[23] = Antiproliferative activity against human MOLT4 cells assessed as cell growth at 10^-5 M after 48 hrs by sulforhodamine B assay; conditions: MOLT-4, 48 h, read-out: Activity

Compound | inhibition of growth at 100 µM [1] [%] | inhibition of growth at 10 µM [2] [%] | inhibition of growth at 100 µM [3] [%] | inhibition of growth at 10 µM [4] [%] | growth at 10 µM [5] [%] | growth at 10 µM (K562) [%] | growth at 10 µM (SR) [%] | growth at 10 µM (A549) [%] | growth at 10 µM (EKVX) [%] | growth at 10 µM (NCI-H226) [%] | growth at 10 µM (NCI-H460) [%] | growth at 10 µM (NCI-H522) [%] | growth at 10 µM [6] [%] | growth at 10 µM [7] [%] | growth at 10 µM [8] [%] | growth at 10 µM (HT-29) [%] | growth at 10 µM [9] [%] | growth at 10 µM [10] [%] | growth at 10 µM [11] [%] | growth at 10 µM [12] [%] | further results
CNC(=O)c1cc(Oc2ccc3nc(NC(=O)Nc4cc(C(F)(F)F)cc(C(F)(F)F)c4)sc3c2)ccn1 | 98.4 | 87.5 | 96.3 | 88.1 | -46 | -20 | -47 | -91 | -31 | -57 | -75 | -58 | -79 | -64 | -90 | -80 | -74 | -77 | -89 | -66 | growth at 10 µM (U-251): -98%; growth at 10 µM [13]: -93%; growth at 10 µM (Malme-3M): -74%; growth at 10 µM [14]: -62%; growth at 10 µM [15]: -93%; growth at 10 µM [16]: -64%; growth at 10 µM [17]: -93%; growth at 10 µM [18]: -71%; growth at 10 µM (786-0): -89%; growth at 10 µM [19]: -69%; growth at 10 µM (SN12C): -58%; growth at 10 µM [20]: -79%; growth at 10 µM [21]: -87%; growth at 10 µM (MCF7): -59%; growth at 10 µM [22]: -71%; growth at 10 µM (MDA-MB-468): -70%
CNC(=O)c1cc(Oc2ccc3nc(NC(=O)Nc4ccc(Cl)c(C(F)(F)F)c4)sc3c2)ccn1 | 94.4 | 82.8 | 94.5 | 79.6 | 52 | 32 | -1 | -50 | -50 | -14 | -57 | 6 | -11 | 20 | -29 | 5 | 4 | 1 | -68 | -75 | growth at 10 µM [23]: 38%; growth at 10 µM (U-251): -66%; growth at 10 µM (Malme-3M): -62%; growth at 10 µM [14]: -36%; growth at 10 µM [15]: -70%; growth at 10 µM [16]: -13%; growth at 10 µM [17]: -40%; growth at 10 µM [18]: -54%; growth at 10 µM (786-0): -64%; growth at 10 µM [19]: -45%; growth at 10 µM (SN12C): 1%; growth at 10 µM [20]: -55%; growth at 10 µM [21]: -54%; growth at 10 µM (MCF7): -3%; growth at 10 µM [22]: -1%; growth at 10 µM (MDA-MB-468): -40%
CNC(=O)c1cc(Oc2ccc3nc(NC(=O)c4ccc5ncccc5c4)sc3c2)ccn1 | 72.3 | 22.5 | 29.6 | 17.1 | 87.5 | 93.7 | 88.8 | 76.5 | 87.5 | 68.6 | 98.6 | 54.3 | 95.8 | 106 | 103 | 69.9 | 112 | 97.5 | 86.9 | 86.5 | growth at 10 µM [23]: 94.2%; growth at 10 µM (U-251): 93.6%; growth at 10 µM [13]: 99.6%; growth at 10 µM (Malme-3M): 80.5%; growth at 10 µM [14]: 93.3%; growth at 10 µM [15]: 98.9%; growth at 10 µM [16]: 106%; growth at 10 µM [17]: 100%; growth at 10 µM (786-0): 98.4%; growth at 10 µM [19]: 109%; growth at 10 µM (SN12C): 92.6%; growth at 10 µM [20]: 90.5%; growth at 10 µM [21]: 77%; growth at 10 µM (MCF7): 88%; growth at 10 µM [22]: 82.3%; growth at 10 µM (MDA-MB-468): 73.7%
